# Results taken from US10106542B2, “Substituted 6,7-dihydropyrazolo[1,5-a]pyrazines as negative allosteric modulators of mGluR2 receptors” (Janssen Pharmaceutica NV, priority 2013, dated 2018).
# Tests used:
# rats = experiment: Reversal of the effect of the mGluR2 PAM JNJ-42153605 on scopolamine-induced hyperlocomotion; assay type: in vivo; conditions: Rattus norvegicus, 1 h, Route PO, test compound 60 min before recording, criterion total distance >1500 cm
# Method: 2) Reversal of the Effect of the mGluR2 PAM JNJ-42153605 on Scopolamine-Induced Hyperlocomotion Apparatus
# Motor activity was measured in microprocessor-based motor activity arenas (closed gray PVC cylinders with a height of 39 cm and a diameter of 31 cm). Each arena was placed on an infrared LED (8×8 LEDs) lit box (white PVC squared box; 40×40 cm^2; height 12.5 cm. An infrared-sensitive tube camera and a white light source were mounted to the ceiling above the observation chamber to track the animal. The total distance traveled (cm) was recorded and analyzed using the Noldus Ethovision XT Video Tracking System (Version 7.0.418; Noldus, Wageningen, The Netherlands). The intensity of the light within the activity cages (measured in the centre at the level of the floor) ranged between 4 and 8 LUX.
# The rats were pretreated with test compound or vehicle at 60 min before the start of the activity recordings and placed into individual cages. The rats were challenged with JNJ-42153605 (3-(cyclopropylmethyl)-7-(4-phenylpiperidin-1-yl)-8-(trifluoromethyl)[1,2,4]triazolo[4,3-a]pyridine; WO2010/130424; Cid et al. J. Med. Chem. 2012, 55, 8770-8789) (20 mg/kg, i.v.) 30 min before the start of the activity recording combined with scopolamine (0.16 mg/kg, i.v.) just before the start of the activity measurements Immediately after the injection of scopolamine, the rats were placed into the activity monitors and total distance travelled over the first 30 min was measured.
# Animals receiving the combination of JNJ-42153605 and scopolamine (n=433) almost always travelled a distance of less than 1500 cm (<1500 cm) (only 2.5% of the control rats travelled a distance of more than 1500 cm (>1500 cm)). On the other hand, animals challenged with scopolamine alone (n=215) always travelled a total distance of more than 1500 cm (>1500 cm) and almost always (in 95.8% of the rats) a distance of more than 4400 cm (>4400 cm). […] For reversal of the inhibitory effect of JNJ-42153605 on the scopolamine-induced hyperlocomotion, two all-or-none criteria were adopted: (1) reversal: total distance >1500 cm; (2) normalization: total distance >4400 cm.
# Wiga rats = experiment: Reserpine interaction test in rats; assay type: in vivo, rat; conditions: for ED50: Rattus norvegicus, po, Time 60, reserpine 10 mg/kg SC, Wiga rats, read-out: ED50, reversal of reserpine-induced ptosis
# Method: 4) Reserpine Interaction Test in Rats
# It was investigated to what extent the mydriatic action of test compounds was sufficient to counteract the miosis induced by the monoamines-depleting agent reserpine (10 mg/kg; SC) in Wiga rats.
# The effects are illustrated in FIG. 3. […] The reference mGlu2 NAMs RO-4995819 (40 mg/kg, p.o.), RO-4491533 (40 mg/kg, p.o.; 10 mg/kg, s.c.) and [CAS 579473-69-1]
# human mGlu2 receptor = biological target: T1, human mGlu2 receptor (Homo sapiens, UniProt Q14416); experiment: [35S]GTPγS binding assay (mGluR2 negative allosteric modulation); assay type: biochemical; conditions: for IC50: membranes from CHO cells transfected with human mGlu2 receptor, glutamate 60 μM, pIC50 = −log IC50 (M), read-out: GTPγS - hmGluR2 anGT pIC50 (converted); for Emax: relative maximal effect: maximal % inhibition relative to the control glutamate response, read-out: GTPγS - hmGluR2 anGT Emax
# T1 construct: expressed in transfected cells; host or cells: CHO cells (membrane preparation)
# How it was run: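 Membranes from butyrate-stimulated CHO cells expressing human mGlu2; 7 μg protein in HEPES pH 7.4, 100 mM NaCl, 3 mM MgCl2, 10 μM GDP, 10 μg/ml saponin. Compound tested against EC80-equivalent glutamate; 0.1 nM [35S]GTPγS, 30 min, 30 °C; filtration, scintillation counting. Data as % of control glutamate response.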
# T1 sequence (Q14416 19-872): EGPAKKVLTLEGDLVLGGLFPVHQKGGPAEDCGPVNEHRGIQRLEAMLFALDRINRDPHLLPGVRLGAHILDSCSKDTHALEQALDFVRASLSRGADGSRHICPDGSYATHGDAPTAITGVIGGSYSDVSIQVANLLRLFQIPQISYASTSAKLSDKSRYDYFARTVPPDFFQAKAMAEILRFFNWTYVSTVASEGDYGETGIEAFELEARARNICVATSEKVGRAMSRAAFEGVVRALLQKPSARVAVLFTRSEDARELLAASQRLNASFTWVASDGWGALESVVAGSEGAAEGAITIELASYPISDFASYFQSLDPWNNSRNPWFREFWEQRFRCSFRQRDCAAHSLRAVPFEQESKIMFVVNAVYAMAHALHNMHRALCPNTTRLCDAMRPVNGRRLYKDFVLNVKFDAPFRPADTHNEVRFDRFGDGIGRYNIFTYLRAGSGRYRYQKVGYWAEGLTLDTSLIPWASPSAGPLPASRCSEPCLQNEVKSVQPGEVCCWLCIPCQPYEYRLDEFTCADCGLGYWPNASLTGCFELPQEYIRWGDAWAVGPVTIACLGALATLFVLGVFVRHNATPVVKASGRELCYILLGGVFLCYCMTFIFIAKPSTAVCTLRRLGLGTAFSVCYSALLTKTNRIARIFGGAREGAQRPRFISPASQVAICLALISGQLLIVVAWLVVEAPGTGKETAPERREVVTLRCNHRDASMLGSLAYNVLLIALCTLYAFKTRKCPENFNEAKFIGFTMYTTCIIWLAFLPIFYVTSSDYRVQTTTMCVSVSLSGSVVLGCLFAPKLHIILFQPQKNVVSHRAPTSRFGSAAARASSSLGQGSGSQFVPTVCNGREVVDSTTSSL
SMILES,ED50 (rats) [mg/kg],melting point [°C],ED50 (Wiga rats) [mg/kg],IC50 (human mGlu2 receptor) [M],Emax (human mGlu2 receptor) [%],"interactions with reserpine (mydriasis, reversal of ptosis, miosis, sedation) (Wiga rats; 10 mg/kg, s.c.)","interactions with reserpine (mydriasis, reversal of ptosis, miosis, sedation) (Wiga rats; 40 mg/kg, p.o.)"
"CCOc1nc(N2C[C@H](C)n3ncc(-c4ccnc(C)c4)c3C2=O)ccc1C(F)(F)F (single isomer, unassigned) [compound 200]",3.15,122.3,0.13,5.89e-09,105,–,–
"Cc1cc(-c2cccc(C3=Nc4cc(C)c(C(F)(F)F)cc4NC(=O)C3)c2)cc(C)n1 [RO-4491533, reference compound]",–,–,–,–,–,devoid of these interactions with reserpine,devoid of these interactions with reserpine
"Nc1ccc(C#Cc2cnn3c(C(F)(F)F)cc(-c4ccc(C(F)(F)F)cc4)nc23)cn1 [RO-4995819, reference compound]",–,–,–,–,–,–,devoid of these interactions with reserpine
COCc1cc(-c2cnn3c2C(=O)N(c2ccc(C(F)(F)F)cc2)C[C@@H]3C)ccn1 [compound 22],–,–,0.13,6.92e-08,104,–,–
Cc1cncc(-c2cnn3c2C(=O)N(c2ccc(C(F)(F)F)cc2)C[C@@H]3C)c1 [compound 24],–,–,≥ 10,–,–,–,–
COc1c(C)cc(N2C[C@H](C)n3ncc(-c4ccnc(C)c4)c3C2=O)cc1C [compound 34],–,> 300,0.8,5.62e-07,100,–,–
COc1ccc(N2C[C@H](C)n3ncc(-c4ccnc(C)c4)c3C2=O)cc1F [compound 35],–,–,> 10,6.03e-07,100,–,–
Cc1ccc(-c2cnn3c2C(=O)N(c2ccc(C(F)(F)F)cc2)C[C@@H]3C)cn1 [compound 36],–,128.2,5,8.32e-07,100,–,–
COc1ccc(N2C[C@H](C)n3ncc(-c4ccnc(C)c4)c3C2=O)cc1 [compound 38],–,–,5,9.55e-07,103,–,–
Cc1cc(-c2cnn3c2C(=O)N(c2ccc(C(F)(F)F)cc2)CC3)ccn1 [compound 40],–,137,0.32,1.48e-06,105,–,–
COc1ccc(N2C[C@H](C)n3ncc(-c4ccnc(C)c4)c3C2=O)cc1OC [compound 41],–,166.9,3.15,3.55e-06,95,–,–
Cc1ccc(N2C[C@H](C)n3ncc(-c4ccnc(C)c4)c3C2=O)cc1 [compound 78],–,–,≥ 10,–,–,–,–
Cc1cc(-c2cnn3c2C(=O)N(c2cccc(OC(C)C)c2)C[C@@H]3C)ccn1 [compound 79],–,–,5,5.13e-07,104,–,–
Cc1cc(-c2cnn3c2C(=O)N(c2ccc(C#N)cc2)C[C@@H]3C)ccn1 [compound 80],–,–,> 2.5,–,–,–,–
